Where a name gives a salt, the structure may show the parent alone. Read-outs that look alike come from different tables or passages of the source.
Columns and labels:
[1] = system: tactile sexual function (TSF); experiment: Self-measured tactile sexual function (TSF) scores C, CT, A, B, BM, BS after ingesting treatment substance(s); settings: for effect on TSF, stated in words: inventor; for TSF when both paroxetine and finasteride were ingested: during use of both drugs; for C, A and B scores when combined with Val and NAC: at 60 minutes;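 as to all read-outs here: Self-rated by the single male inventor (about 65 kg) after oral intake, capsules unless noted, on the TSF scale, each one-unit score rise means roughly double the sensation intensity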
Excerpt: Some treatment substances were in liquid form when orally ingested. For the Working Examples herein all treatment substances were in capsule form unless otherwise noted in the Tables herein. […] It is contemplated that the mg per kilogram dose of treatment substances and/or the time from ingesting one or more treatment substances may vary from person to person for optimum improvement in treating a sexual dysfunction (e.g., an SRSS including reduced TSF or absent TSF). In some instances, it is contemplated that ingesting one treatment substance may be done at a different time than ingesting another treatment substance to optimize the effect in treating a sexual dysfunction.
For a male, the A score is the highest intensity of TSF just before the first muscle contraction of ejaculation, and the B score is the highest intensity of TSF just after the first muscle contraction of ejaculation.

[2] = system: ejaculation/orgasm; experiment: Ejaculation scores D (strength of the muscle contractions during ejaculation) and DE (ease to achieve ejaculation), incl. FE/FO; format: in vivo, human; settings: for effect on D/DE scores, stated in words: Examples with the positive cholinergic; for time after ingestion at which the increase in DE score may peak: before 60 minutes; for average D score / average DE score: when not combined with another listed positive cholinergic
Protocol: Variations in TSF and other sexual responses were noticed after ingesting a treatment substance, and additional scores to describe these responses were recorded in some examples. In some examples the C score for TSF was localized only to the head (“glands”) of the penis when one or more C score measurements were taken prior to attempted or achieved ejaculation/orgasm. […] In some examples after ingesting a treatment substance, the speed of B score decrease from the first muscle contraction to the last muscle contraction of ejaculation was recorded as the “BS” score using terms such as “IS” for instantaneous loss of TSF where a B score of 0.0 occurred at or immediately after the first muscle contraction, “FT” for a fast loss of TSF, and “SL” for a slow loss of TSF. In some examples the minimum B score measured at or near the last muscle contraction was recorded as the “BM” score using the same scoring parameters as for the B score. […] In some examples the ease to achieve ejaculation was recorded as the “DE” score, with a score of 1.0 being ejaculation achieved with some difficulty, 2.0 being a typical/normal ease of ejaculation, and a 3.0 being of the ease of ejaculation was promoted. […] When a score (e.g., C, CT, A, B, BM, BS, D, DE) was not recorded or not applicable then “N/A” is listed for that score and that score was not used (no numeric score) for mathematical evaluations in such an occurrence.
Dietary vitamins and nutritional supplements were ingested about 7:00 AM to about 10:30 AM with coffee, and coffee consumption ended by about 12:00 PM or earlier. No food was ingested during the day before measurements as only one meal a day is typically eaten in the evening.
Measurements were made in the morning from about 7:30 AM until about 11:30 AM.
Dietary vitamins and nutritional supplements were ingested about 7:00 AM to about 10:30 AM with coffee, and coffee consumption ended by about 12:00 PM or earlier.
No food, dietary vitamins or nutritional supplements were ingested the day of the measurements until after the measurements were taken.

[3] = Non-sexual side effects associated with ingesting treatment substances; settings: for non-sexual side effect / adverse event: after ingesting the treatment substance
[4] = system: sexual function; experiment: Additional sexual effects after ingesting treatment substances (C score different, urination sensitivity, ease to ejaculate); format: in vivo, human; settings: 3000 mg/day, after about a week
[5] = in ester or salt form, cited from earlier work
[6] = molecular target: mGlu5-R (Homo sapiens, UniProt P41594); settings: Glu released by Xc- after exchange for Cys2; cited from earlier work
Chain of mGlu5-R (P41594 21-1212): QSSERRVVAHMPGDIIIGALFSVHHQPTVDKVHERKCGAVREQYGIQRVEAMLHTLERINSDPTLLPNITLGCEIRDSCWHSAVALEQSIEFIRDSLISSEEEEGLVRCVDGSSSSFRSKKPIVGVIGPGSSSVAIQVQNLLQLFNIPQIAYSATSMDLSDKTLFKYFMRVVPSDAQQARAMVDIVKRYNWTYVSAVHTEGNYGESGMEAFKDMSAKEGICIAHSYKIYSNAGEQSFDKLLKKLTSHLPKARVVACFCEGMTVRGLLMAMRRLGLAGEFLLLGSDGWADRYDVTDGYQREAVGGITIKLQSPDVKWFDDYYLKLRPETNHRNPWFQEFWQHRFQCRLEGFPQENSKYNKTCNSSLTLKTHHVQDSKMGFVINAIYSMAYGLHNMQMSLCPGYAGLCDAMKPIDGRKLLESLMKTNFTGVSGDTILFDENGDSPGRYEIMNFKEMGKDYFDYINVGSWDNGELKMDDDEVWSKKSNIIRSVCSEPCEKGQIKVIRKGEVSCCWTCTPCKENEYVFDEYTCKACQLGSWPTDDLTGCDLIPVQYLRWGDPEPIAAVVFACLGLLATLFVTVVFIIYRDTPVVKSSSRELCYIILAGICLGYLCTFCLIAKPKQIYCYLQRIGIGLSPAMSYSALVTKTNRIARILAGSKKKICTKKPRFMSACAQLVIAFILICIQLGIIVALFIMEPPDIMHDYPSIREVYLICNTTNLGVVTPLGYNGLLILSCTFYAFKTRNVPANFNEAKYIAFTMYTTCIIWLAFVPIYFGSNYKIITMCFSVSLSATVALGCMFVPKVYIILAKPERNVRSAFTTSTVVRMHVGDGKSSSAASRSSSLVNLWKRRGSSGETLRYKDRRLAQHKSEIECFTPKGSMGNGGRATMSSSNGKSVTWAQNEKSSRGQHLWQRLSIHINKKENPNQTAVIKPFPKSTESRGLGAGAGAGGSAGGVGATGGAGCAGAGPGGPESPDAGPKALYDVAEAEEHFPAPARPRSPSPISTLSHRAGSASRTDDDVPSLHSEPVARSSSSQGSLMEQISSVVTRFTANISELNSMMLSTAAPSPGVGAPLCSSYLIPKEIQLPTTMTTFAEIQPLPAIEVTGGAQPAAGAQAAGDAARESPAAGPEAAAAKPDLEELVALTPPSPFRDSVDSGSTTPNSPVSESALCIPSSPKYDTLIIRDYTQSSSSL

[7] = system: mGlu(2/3)-R; settings: rats, striatum; cited from earlier work
[8] = in vivo; cited from earlier work
[9] = system: tactile sexual function (TSF); experiment: C score at varying time points after ingestion (duration of effect; rise, peak, fall pattern or decline pattern); format: in vivo, human; settings: C scores at 20 to 60 minutes
Excerpt: Table 42 records the increases/decreases in C scores over time as a measure of the duration of the effect of ingesting a treatment substance on TSF, for some working examples listed in previous tables. These working examples measured TSF for C scores at varying time points after the first ingestion of a treatment substance and before the measurement of the B score. Negative time scores indicate that the C score measurement occurred prior to ingesting a treatment substance, such as at example T37:82 the […] time is listed as −20 as the measurement for the C score at the C1 time was made 20 minutes before ingesting the treatment substance. In some examples additional rows were used to record C scores (e.g., examples T37:82 and T40:1). The duration of the effect of treatment substance(s) on the C score varied, with some reaching a peak C score before the B score measurement (e.g., see example T37:43), and other still increasing in C score to the B score measurement (e.g., see example T41:8).
Early C score measurements, when available, are shown for 20, 30, 40, and/or 50 minutes. […] Individual combinations of Val and NAC and another treatment substance may vary from the average's rise, peak, fall pattern (e.g., T41:120). […]

[10] = after the first day of ingesting bupropion
[11] = prolonged daily ingestion (D-Asp 3000 mg/day about a week; bupropion per prescription, following months)
[12] = Table 47A, dose in mg per example: Phenibut 450, Homotaurine 50, 150, 200, 250, listed as T38:5
[13] = Table 47A, dose in mg per example: Phenibut 450, Homotaurine 50, 150, 200, 250, listed as T38:18
[14] = Table 47A, dose in mg per example: Phenibut 450, Homotaurine 50, 150, 200, 250
[15] = Table 47A, dose in mg per example: Phenibut 450, Homotaurine 50, 150, 200, 250, beverage and time as in Tables 37, 38, 39
[16] = Table 39C, ingested at times other than 60 minutes before measurements
[17] = Table 39B, ingested at times other than 60 minutes before measurements, various beverages

CC(=O)N[C@@H](CCC(N)=O)C(=O)O [AcetylGln, N-Acetyl L-Glutamine]
effect on TSF, stated in words [1]: relatively weak effect

CC(NC(C)(C)C)C(=O)c1cccc(Cl)c1 (centres unmarked) [Bupropion, reference compound]
D score [2, 10]: 3.0
DE score [2, 10]: 2.0
D score [2, 11]: 3.0
DE score [2, 11]: 2.0
non-sexual side effect / adverse event [3]: feeling odd/under the influence of a drug
A score [1, 10]: about 4
B score [1, 10]: about 4
C score [1, 10]: less than 1
A score [1, 11]: 0
B score [1, 11]: 0
BM score [1, 11]: 0
C score [1, 11]: 0

N[C@H](CC(=O)O)C(=O)O [D-Asp, D-Aspartic Acid]
D score [2, 11]: 3.0
DE score [2, 11]: 2.0
physical arousal (erections) [4]: extremely promoted
non-sexual side effect / adverse event [3]: a small bump from a varicose vein developed on the penis
A score [1, 11]: 0
B score [1, 11]: 0
BM score [1, 11]: 0
C score [1, 11]: 0

C[C@@H](O)CC(=O)O [D-Beta-Hydroxybutyrate]
blood ketone bodies such as D-Beta-Hydroxybutyrate ([5]; 12 grams): 1.0 mM
blood ketone bodies such as D-Beta-Hydroxybutyrate ([5]; 24 grams): 2.8 mM

NCCCS(=O)(=O)O [Example T38: 5, Homotaurine]
C score ([1]; Table 47A, dose in mg per example: Phenibut 450, Homotaurine 50, 150, 200, 250, beverage and time as in Tables 37, 38, 39, listed as T38:5): 1.8
A score [1, 12]: 9.5
B score [1, 12]: 9.5

NCCCS(=O)(=O)O [Example T38: 18, Homotaurine]
C score ([1]; Table 47A, dose in mg per example: Phenibut 450, Homotaurine 50, 150, 200, 250, beverage and time as in Tables 37, 38, 39, listed as T38:18): 1.0
A score [1, 13]: 9.2
B score [1, 13]: 9.2

CC(C)(C)NC(=O)[C@H]1CC[C@H]2[C@@H]3CC[C@H]4NC(=O)C=C[C@]4(C)[C@H]3CC[C@]12C [Finasteride, reference compound]
TSF when both paroxetine and finasteride were ingested ([1]; oral, per prescription): complete lack of TSF
effect on TSF while ingesting the drug ([1]; oral, per prescription, inventor before SRSS): moderately reduced TSF

NCCCC(=O)O [GABA, gamma-aminobutyric acid]
effect on TSF, stated in words [1]: mild improvement in TSF relative to Val

COc1ccc2c3c1O[C@H]1C[C@@H](O)C=C[C@@]31CCN(C)C2 [Galantamine HBr, Galantamine Hydrobromide, reference compound]
effect on D/DE scores, stated in words [2]: generally had improved D/DE scores
time after ingestion at which the increase in DE score may peak [2]: about 40 minutes
average D score [2]: about 3.6
average DE score [2]: 2.4

N[C@@H](CCC(=O)O)C(=O)O [Glu, Glutamic Acid]
Glu level at which the extrasynaptic mGlu5-R becomes activated [6]: 500 µM
Glu concentration that activated the mGlu(2/3)-R [7]: 0.5 µM

C/C=C1\[C@H]2C=C(C)C[C@]1(N)c1ccc(=O)[nH]c1C2 [Huperzine A]
effect on D/DE scores, stated in words [2]: also had Examples of improved D/DE scores
time after ingestion at which the increase in DE score may peak [2]: about 40 minutes
average D score [2]: 3
average DE score [2]: 1.9

CC(=O)N[C@@H](CS)C(=O)O [NAC, N-Acetyl-Cysteine, reference compound]
effect on TSF, stated in words [1]: no positive effect was noticed on TSF

CN[C@H](CC(=O)O)C(=O)O [NMDA, N-Methyl-D-Aspartic Acid, reference compound]
effect on TSF, stated in words [1]: negative effect on TSF scores

NCCCS(=O)(=O)O [T37:56, Homotaurine]
A score [1, 14]: 7.5
B score [1, 14]: 7.5
C score [1, 15]: 1.2

NCCCS(=O)(=O)O [T37:57, Homotaurine]
A score [1, 14]: 9.2
B score [1, 14]: 9.2
C score [1, 15]: 1.2

NCC(CC(=O)O)c1ccccc1 (centres unmarked) [T39:13, Phenibut HCl]
D score (strength of the muscle contractions during ejaculation) [2, 16]: 4.0
DE score (ease to achieve ejaculation) [2, 16]: 2.0
Side Effect ([3]; non-sexual side effect after ingesting treatment substance(s)): Felt not normal
Time of Side Effect ([3]; time after ingesting treatment substance(s), sometimes approximated): 20 to 120 min
A score [1, 17]: 6.5
B score [1, 17]: 6.5
C score [1, 17]: 1.5
A score [1, 16]: 6.5
B score [1, 16]: 6.5
C score [1, 16]: 1.5
A score [1, 14]: 6.5
B score [1, 14]: 6.5
C score [1, 15]: 1.5

CC(C)[C@H](N)C(=O)O [Val, Valine]
effect on TSF, stated in words [1]: stronger improvement in TSF than either Leu or Ile

Cn1c(=O)c2c(ncn2C)n(C)c1=O [caffeine, Caffeine]
average plasma half-life [8]: 5 h

O=C1c2c(O)cc(O)cc2O[C@H](c2cc(O)c(O)c(O)c2)[C@H]1O [dihydromyricetin, Dihydromyricetin]
C score pattern over time when ingested alone [9]: decline pattern
C, A and B scores when combined with Val and NAC [1]: C, A and B scores less than the lowest C, A and B scores of Val and NAC alone
effect on TSF, stated in words [1]: reduced positive TSF scores

COc1ccc([C@@H]2CC(=O)c3c(O)cc(O[C@@H]4O[C@H](CO[C@@H]5O[C@@H](C)[C@H](O)[C@@H](O)[C@H]5O)[C@@H](O)[C@H](O)[C@H]4O)cc3O2)cc1O [hesperidin, Hesperidin]
C score pattern over time when combined with Val and NAC [9]: rise, peak, fall pattern of C scores and not a high C, A, and/or B scores

COc1ccc(-c2oc3c(CC=C(C)C)c(O[C@@H]4O[C@H](CO)[C@@H](O)[C@H](O)[C@H]4O)cc(O)c3c(=O)c2O[C@@H]2O[C@@H](C)[C@H](O)[C@@H](O)[C@H]2O)cc1 [icariin, Icariin]
C, A and B scores when combined with Val and NAC [1]: C score below a preferred C score and A and B scores that matched the lowest A and B scores of Val and NAC alone

Fc1ccc([C@@H]2CCNC[C@H]2COc2ccc3c(c2)OCO3)cc1 [paroxetine, reference compound]
TSF after discontinuing paroxetine use ([1]; finasteride continued): absence of TSF continued much to most of the time
TSF when both paroxetine and finasteride were ingested ([1]; oral, per prescription): complete lack of TSF

NCC(CC(=O)O)c1ccccc1 (centres unmarked) [phenibut, Phenibut HCl]
effect on TSF, stated in words [1]: weaker effect on improving A/B TSF scores

CCNC(=O)CC[C@H](N)C(=O)O [theanine, Theanine]
number of Examples with failure to ejaculate ([2]; of 14 Examples having theanine as a treatment substance, 12 failures in all Examples): 3

Source: patent publication US20250152601A1, “Compositions and Methods for the Treatment of Sexual Dysfunctions” (The Jonathan Hurt Living Trust, priority 2022, published 2025)
